Key:
NSG-SGM3 BLT mice [1] = details: mouse, in vivo, sc
Method: All wild type male immune-competent C57BL/6 mice or immunodeficient strains used for producing humanized models (described below) were ordered pathogen-free from The Jackson Laboratory (Bar Harbor, ME). Implanted mice were anesthetized with 3% isoflurane in oxygen and their abdomens were shaved and sterilized using betadine and isopropanol. Preoperatively, all mice received 0.05 mg/kg buprenorphine and 0.2 mL of 0.9% saline SC for pre-surgery analgesia and hydration.
For phase contrast imaging retrieved materials were gently washed using Krebs buffer and transferred into 35 mm petri dishes for phase contrast microscopy using an EVOS XL microscope (Advanced Microscopy Group). For bright-field imaging of retrieved materials, samples were gently washed using Krebs buffer and transferred into 35 mm petri dishes for bright-field imaging using a Leica Stereoscopic microscope.
Retrieved material-containing tissue (intraperitoneal and/or subcutaneous) was fixed overnight using 4% paraformaldehyde at 4° C. After fixation, alginate sphere or retrieved tissue samples were washed using 70% alcohol. The materials were then paraffin embedded, sectioned at 5 μm thickness and stained according to standard histological (H&E or Masson's Trichrome) methods.

NSG-SGM3 BLT mice [2] = details: mouse, in vivo
Method: SLG20 alginate 500 μm diameter spheres (“alginate spheres,” 0.5 ml total implant volume) were implanted into the intraperitoneal (IP) space of pro-fibrotic C57BL/6 mice and various humanized mouse models, retained for 28 days, and analyzed for degree of fibrosis upon alginate sphere retrieval. […] Experiments repeated at least 3 times.
Implanted mice were anesthetized with 3% isoflurane in oxygen and their abdomens were shaved and sterilized using betadine and isopropanol. Preoperatively, all mice received 0.05 mg/kg buprenorphine and 0.2 mL of 0.9% saline SC for pre-surgery analgesia and hydration. A midline incision (0.5 mm) was made and the peritoneal lining was exposed using blunt dissection. The peritoneal wall was then grasped with forceps and a 0.5-1 mm incision was made along the linea alba. 500 μL of spheres were then loaded into a sterile pipette and implanted into the intraperitoneal (IP) space. The incision was then closed using 5-0 PDS II absorbable sutures, and the skin was closed using wound clips and VetBond tissue glue. […] For macrophage depletion, clodrosomes (200 μL/mouse) (Encapsula NanoSciences, Nashville, TN) were injected IP starting at −3 days (prior to implant day 0), and for every 7 days thereafter (on days −3, 4, and 11). […]

Row | Substance | fibrotic encapsulation upon retrieval (NSG-SGM3 BLT mice [1]) | FBR / fibrosis (NSG-SGM3 BLT mice [2])
1 | polystyrene [Polystyrene spheres] | prominent fibrotic encapsulation | fibrosis of synthetic biomaterial polymer implants was observed
2 | polydimethylsiloxane [PDMS 5 mm molded discs] | – | fibrosis of synthetic biomaterial polymer implants was observed

Source: patent publication US20250120372A1, “HUMANIZED MOUSE MODEL OF FIBROSIS” (The Jackson Laboratory, priority 2021, published 2025)
